Measurements published in PubChem BioAssay AID720513 (Broad Institute, 2013).
Inconclusive results are not listed.

Test system: U2OS PGC1a acetylation AlphaLISA, overnight
Assay: activators raising PGC1a acetylation in cells, dose response, cell-based, cherry-picked samples, set 6 (AID 720513);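 note: cells made to overexpress flag tagged PGC1a plus GCN5 acetyltransferase by viral infection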

| SMILES | AC40 [µM] |
| --- | --- |
| Cc1cc(C)c2c(-n3cccc3)c(C(=O)NNS(=O)(=O)c3ccccc3)sc2n1 | 4.82 |
| CC(=O)c1ccc(N2CCN(C(=O)C(=O)c3c(C)[nH]c4ccccc34)CC2)cc1 | 0.996 |
| COc1ccc(Nc2nnc(C)c3ccccc23)cc1 | 5.12 |
| c1ccc(C(c2nnnn2Cc2cccs2)N2CCN(C3CCCC3)CC2)cc1 (stereo unspecified) | 0.483 |
| CN1c2ccccc2C2(C)CCCC3=Cc4cccc([N+](=O)[O-])c4OC312 (stereo unspecified) | 0.48 |
| Oc1ccc(C[C@@H]2CNCCN2CCC23CC4CC(CC(C4)C2)C3)cc1 | 6.79 |
| COc1cc(CN2CCCC(CO)(Cc3cccc(Cl)c3)C2)cc2c1OCO2 (stereo unspecified) | 8.62 |
| CCO[C@H]1OC(C(=O)N2CCCCCCC2)=C[C@@H](C2CCCCC2)[C@@H]1CCCO | 1.96 |
| CC(=O)C1=CCC(c2cccc3ccccc23)N(S(=O)(=O)c2ccc(C)cc2)C1 (stereo unspecified) | 18.7 |
| CSCCC(c1nnnn1-c1c(C)cccc1C)N1CCC2(CC1)C(=O)NCN2c1ccccc1 (stereo unspecified) | 4.64 |
| Cc1ccccc1-c1ccc2c(c1)O[C@H](CN(C)Cc1ccncc1)[C@@H](C)CN([C@@H](C)CO)S2(=O)=O | 14.9 |
| COCCCn1c(N)c(C(=O)Nc2ccccc2)c2nc3ccccc3nc21 | 1.18 |
| CC(=O)Nc1ccc(Nc2ncnc3c2cnn3-c2ccc(C)cc2C)cc1 | 2.53 |
| Cc1ccc(S(=O)(=O)N(Cc2ccc(F)cc2)Cc2ccco2)cc1 | 6.76 |
| COc1ccc(OC(=O)N(C)C[C@H]2OCc3ccccc3-c3c(n(C)c4ccccc34)C(=O)N([C@@H](C)CO)C[C@H]2C)cc1 | 6.72 |
| CCOC(=O)C(C)n1cnc2c(nnn2-c2ccc(C)cc2)c1=O (stereo unspecified) | 2.7 |
| C[C@H]1CN([C@@H](C)CO)C(=O)c2cccc(NC(=O)c3cnccn3)c2O[C@H]1CN(C)Cc1ccc(C(=O)Nc2ccccc2N)cc1 | < 2.6 |
| CCOC(=O)C1=C[C@@H](C(C)(C)C)N(S(=O)(=O)c2ccc(C)cc2)[C@H]1c1cccc2ccccc12 | 0.543 |
| Cc1cccc(-c2ccc(C3[C@@H]4CN(C(=O)C5CCCCC5)C[C@H]3N4)cc2)c1 (stereo partly specified) | 6.09 |
| O=C(Cc1ccccc1)Nc1nc(-c2ccc(F)c(F)c2)cs1 | 1.44 |
| COc1ccc(C2N(S(=O)(=O)c3ccccc3)CCN2S(=O)(=O)c2ccc(C)cc2)cc1 (stereo unspecified) | 6.61 |
| CC(=O)c1cccc(N(C(=O)c2cnccn2)C(C(=O)NCc2ccccc2)c2ccco2)c1 (stereo unspecified) | 1.39 |
| C=C/C=C/[C@@H]1C(=C)CN2[C@H]1[C@H](Cc1ccccc1)OC(=O)[C@@H]2Cc1ccccc1 | 11.6 |
| Cc1c(OCc2ccc(C(=O)O)cc2)ccc2c(-c3ccccc3)cc(=O)oc12 | 7.28 |

| SMILES | AC40 [µM] |
| --- | --- |
| O=c1[nH]nc(SCCS(=O)(=O)c2ccc(F)cc2)n1-c1ccccc1 | 15.2 |
| CC(C)C(OC(=O)c1cccs1)C(=O)NC1CCCCC1 (stereo unspecified) | 2.58 |
| Cc1cccc(C)c1-n1nnnc1C(c1cccs1)N1CCC(n2c(=O)[nH]c3ccccc32)CC1 (stereo unspecified) | 5.87 |
| CC(=O)c1ccc(OCC(=O)OCC(=O)Nc2sccc2C(N)=O)cc1 | 6.46 |
| CO[C@@H](C(=O)N(C)C[C@H]1OCc2ccccc2-c2c(n(C)c3ccccc23)C(=O)N([C@H](C)CO)C[C@H]1C)c1ccccc1 | 8.25 |
| COc1ccc2c(c1)C(C)=CC(C)(C)N2S(=O)(=O)c1ccc(Br)cc1 | 2.69 |
| CC(C)(C)n1nnnc1CN(Cc1ccc(F)cc1)Cc1ccco1 | 1.73 |
| CCN1CCN(C(=O)c2ccc3c(=O)n(CCC4=CCCCC4)c(=O)[nH]c3c2)CC1 | 1.94 |
| COC(=O)[C@H](Cc1ccccc1)N(C)S(=O)(=O)c1cccc(S(=O)(=O)N(C)[C@@H](Cc2ccccc2)C(=O)OC)c1 | 9.66 |
| CCOC(=O)c1c(NC(=O)CSc2cn(CC)c3ccccc23)sc2c1CCC2 | 6.55 |
| Nc1ccc(N2CCCCC2)cc1N1CCCCC1 | 5.98 |
| CCn1nc(C)c(CN2CCc3c([nH]c4ccccc34)C2C(C)(C)C)c1C (stereo unspecified) | 0.88 |
| CC1(C)OC(C)(C)/C(=C\c2ccc(OCC(N)=O)cc2)C1=O | 6.64 |
| Cc1cc2cc3c(cc2nc1SCC(=O)OC(C)C)OCCO3 | 11.5 |
| CCn1c(=S)[nH]c2cc(S(=O)(=O)N3CCCCC3)ccc21 | 1.62 |
| CCN1CCN(c2cc(C)c3cc(NC(=O)c4ccc(Br)o4)ccc3n2)CC1 | 8.23 |
| COc1ccc(CCNCc2ccc(-c3ccccc3)cc2)cc1OC | 2.23 |
| CCOC(=O)C1=C[C@@H](C(C)C)N(S(=O)(=O)c2ccc(C)cc2)[C@H]1c1ccc(C(F)(F)F)cc1 | 2.64 |
| Cc1cccc(C)c1OC1(c2ccccc2)OC(=O)c2ccccc21 (stereo unspecified) | 1.1 |
| Clc1ccc(-c2nnc(-c3ccccc3)nc2N2CCSCC2)cc1 | 17.7 |
| COC(=O)c1ccc(NC(=O)c2cccnc2)cc1 | 1.86 |
| Cc1nnc(NCc2ccccc2)c2ccccc12 | 3.04 |
| O=C(C[C@H]1CC[C@H]2[C@@H](COC[C@@H](O)CN2C(=O)c2cc(Cl)cc(Cl)c2)O1)N1CCc2ccccc2C1 | 9.14 |
| Cc1cc2c(cc1S(=O)(=O)N1CCc3ccccc31)NC(=O)CO2 | 2.18 |

| SMILES | AC40 [µM] |
| --- | --- |
| O=C(CCn1nnc2ccccc21)Nc1nnc(Cc2ccccc2)s1 | 4.36 |
| CC(=O)c1ccc(NC(=O)N2CCc3ccccc3C2)cc1 | 0.412 |
| O=C(Cn1c(CN2CCCCC2)nc2ccccc2c1=O)Nc1ccccc1 | 5.19 |
| Cc1ccc(OC(=O)N(C)C[C@H]2OCc3ccccc3-c3c(n(C)c4ccccc34)C(=O)N([C@@H](C)CO)C[C@H]2C)cc1 | 4.98 |
| CC(=O)Nc1nonc1-c1nc2ccccc2n1Cc1ccccc1 | 4.88 |
| O=S(=O)(NCc1ccccc1Br)c1ccccc1Br | 1.68 |
| CCOc1ccccc1NC(=O)CSc1cn[nH]n1 | 2.47 |
| CCn1c(SCC(=O)Nc2ccc(NC(=O)c3ccco3)cc2)nnc1-c1cccs1 | 1.7 |
| O=S(=O)(c1cccc(F)c1)N1CCN(Cc2cc3c(cc2Br)OCCO3)CC1 | 0.411 |
| Cc1cccc2cc(CN(Cc3ccc(F)cc3)Cc3nnnn3C3CCCC3)c(=O)[nH]c12 | 4.14 |
| CC1CN(S(=O)(=O)c2ccc(C(=O)NCCCn3ccnc3)cc2)CC(C)O1 (stereo unspecified) | 0.246 |
| COc1ccc(Cc2nc(-c3ccc(NC(=O)c4cccnc4)cc3)no2)cc1 | 0.991 |
| COc1ccc(-n2nnnc2CNC(=O)c2ccc3ccccc3c2)cc1 | 6.36 |
| COC(=O)[C@@]1(C)[C@H]2C(=O)N(Cc3ccccc3)C(=O)[C@H]2[C@H]2CN=C(SCC3CC3)N21 | 16.8 |
| COc1ccc(N(C(=O)c2csnn2)C(C(=O)NC2CCCC2)c2cccs2)cc1 (stereo unspecified) | 2.62 |
| O=C(NN1c2ccccc2CCc2ccccc21)c1ccccc1Br | 4.84 |
| O=C(CSc1nc2c(sc3ccccc32)c(=O)n1CCc1ccccc1)NCc1ccco1 | 18.1 |
| Cc1cccc(CS(=O)(=O)c2ncc(Cl)c(C(=O)Nc3ccc(F)cc3)n2)c1 | 1.56 |
| CCOc1ccc(NC(=O)CN2CCC(n3cnc4cc(F)ccc43)CC2)cc1 | 2.84 |
| Cc1cc(N2CCC(C(N)=O)CC2)nc(-c2ccccc2)n1 | 3.95 |
| O=C(CC1SC(=NCc2ccccc2)NC1=O)Nc1ccccc1 (stereo unspecified) | 0.632 |
| COC(=O)c1ccc(NC(=O)C23CC4CC(C2)CC(n2cnc(Cl)n2)(C4)C3)cc1 | 1.82 |
| COc1ccccc1OCC(=O)Nc1ccc(Cl)cc1C(=O)c1ccccc1 | 7.29 |
| CC(C)(C)c1ccc(C(=O)Nc2ccc(C(=O)NCc3cccnc3)cc2)cc1 | < 0.16 |

| SMILES | AC40 [µM] |
| --- | --- |
| CCCCC(=O)Nc1ccc(NC(=O)c2cccs2)cn1 | 18.9 |
| c1ccc(Cn2nnnc2C(c2cccs2)N2CCCCCC2)cc1 (stereo unspecified) | 14.2 |
| CN1CCN(c2ccc(CNC(=O)c3ccc(-c4ccnn4C)c4ccoc34)cc2)CC1 | 9.27 |
| COc1cc2cc(-c3ccc(O)cc3O)nc(C)c2cc1OC | 19.3 |
| CCOC(=O)CC(S(=O)(=O)c1ccccc1)S(=O)(=O)c1ccccc1 | 4.09 |
| CCOCCn1c(CN(Cc2ccccc2)Cc2ccccc2)nc2c1c(=O)n(C)c(=O)n2C | 6.65 |
| CS(=O)(=O)N(CC(=O)N1CCN(c2ccccc2)CC1)c1cccc(Br)c1 | 17.8 |
| COc1ccc(S(=O)(=O)N(C)CC(=O)Nc2cccc(C(C)=O)c2)cc1Cl | 9.1 |
| O=C(c1ccccc1)C(O)(Cc1ccccc1)c1ccccc1 (stereo unspecified) | 0.901 |
| CCOc1ccc(Nc2oc(-c3ccc(Cl)cc3)nc2C#N)cc1 | 3.09 |
| O=C(NCc1cccnc1)c1ccc(NC(=O)c2cccc([N+](=O)[O-])c2)cc1 | < 0.16 |
| CCCc1cc2c(cc1N(C)S(=O)(=O)c1ccccc1)OCO2 | 2.96 |
| O=C(Nc1ccc(F)cc1)N1CCN(c2nc3ccccc3s2)CC1 | 2.7 |
| Cc1cc(C(F)(F)F)n(-c2nc(C(=O)NNS(=O)(=O)c3ccccc3[N+](=O)[O-])cs2)n1 | 3.43 |
| O=C1C=C(c2cc3ccccc3s2)CCC1 | 3.77 |
| C[C@@H](c1ccccc1)N1Cc2ccccc2Oc2cc(Br)ccc2S1(=O)=O | 14.3 |
| COc1ccc(CCn2c(-c3ccc(OC)cc3)nc3c(c(=O)c4ccccc4n3C)c2=O)cc1 | 7.43 |
| COc1ccc(C(c2ccc(OC)cc2)C(Cl)(Cl)Cl)cc1 | 0.729 |
| CC1(C)CCCN(C(=O)N2c3ccccc3Sc3ccccc32)C1 | 1.33 |
| O=C(Nc1c(F)cccc1F)c1ccc(-n2cncn2)nc1 | 9.12 |
| Cc1ccc(OC(=O)N(C)C[C@H]2OCc3ccccc3-c3c(n(C)c4ccccc34)C(=O)N([C@H](C)CO)C[C@H]2C)cc1 | 7.6 |
| C[C@@H]1CN([C@@H](C)CO)C(=O)c2c(c3ccccc3n2C)-c2ccccc2CO[C@@H]1CN(C)C(=O)Nc1ccc(F)cc1 | 7.76 |
| Cc1ccc(NC(=O)CN2CCC(NC(=O)Cc3ccccc3)CC2)c(C)c1 | 0.507 |
| CCN(CC)S(=O)(=O)c1c(Br)cc(C)cc1Br | 1.29 |
